{"source": "the NIST ThermoML archive (doi:10.1016/j.tca.2010.12.008)", "settings": "Crystal 2; visual observation", "note": "Numbers after ± are expanded uncertainties.", "data": [{"smiles": "CC(C)(C)P(=O)(O)C(C)(C)C", "note": "[di-tert-butylphosphinic acid]", "values": [{"measurement": "Triple point temperature", "result": "37.8 ± 0.5", "unit": "K"}]}]}
